We go through 1 compound from paper PMC8409585 (The Journal of Clinical Investigation, 2021).

pIC50: −log10 of the molar value.

In the assay the target is T1, mitochondrial electron transport chain complex I (ETCC1), NADH ubiquinone oxidoreductase (Bos taurus, UniProt P03887+P17694+P42026).
T1 construct: gene MT-ND1

Take `C=C(C)[C@@H]1C[C@@]2(C)C(=CC1=O)CC[C@@H](OC(=O)/C(C)=C\C)[C@@H]2C` [PT, petasin]: the pIC50 (commonly the negative decadic logarithm of the IC50, by convention in mol/L) was 5.45.
